Measured values taken from US20220220152A1, “BIVALENT ANTAGONISTS OF INHIBITORS OF APOPTOSIS PROTEINS” (Hepagene Therapeutics (HK) Limited, priority 2019, published 2022).

Tests used:
[1] = target: T1, XIAP-BIR3 (Homo sapiens, UniProt P98170); assay: XIAP-BIR3 fluorescence polarization binding assay; conditions: FP, probe AbuRPFK-5FAM (SM5F) 5 nM, XIAP-BIR3 40 nM, 60 min at 25° C.
T1 construct: XIAP-BIR3; purchased Reaction Biology APT-11-374
Text: (§1) IAPs are one main cause of cancer development and may result from overexpression of anti-apoptotic proteins. This protocol establishes three binding assays for […] Bir3 domain, cIAP1 and cIAP2 using FP (fluorescence polariation) technology. The fluorescence probe used is a synthetic peptide conjugated to 5-carboxyfluorescein (AbuRPFK-5FAM). The fluorescence polarization value (mP) was detected by Envision, which was used to reflect the binding degree of protein and fluorescent marker.
(§2) • a. Prepare 100 times of the final cpd concentration in appropriate tube and transfer 5 uL cpd to 45 μL 1× reaction buffer with 10% DMSO • b. The final reference cpd concentration is 10000, 3333.3, 1111.1, 370.4, 123.4, 41.2, 13.7, 4.57, 1.52, 0.51, 0.17 and 0 nM. So the 100 times of the concentration is 1000, 333.3, 111.1, 37.04, 12.34, 4.12, […], 0.15, 0.05, 0.017 and 0 μM. The final test cpds concentration is 3333.3, 1111.1, 370.4, 123.4, 41.2, 13.7, 4.57, 1.52, 0.51, 0.17, 0.057 and 0 nM. So the 100 times of the concentration is 333.3, 111.1, 37.04, 12.34, 4.12, […], 0.15, 0.05, 0.017, 0.0057 and […] • c. Add 8 μL/well each dose enzyme to 384 wen microplate (ProxiPlate-384 F Plus, 6008260) using multichannel pipette, prepared in Table 3. • d. Centrifuge at 1000 rpm • e. Add 2 μL/well cpd to 384 well microplate (ProxiPlate-384 F Plus, 6008260) using multichannel pipette, prepared in step a). • f. Centrifuge at 1000 rpm RT, 15 min. • g Start the assay by adding 10 uL/well substrate (prepared in Table 4) to the same 384 wen microplate using multichannel pipette. • h. Centrifuge at 1000 rpm. • i. Cover the assay plate and incubate for 60 min at 25° C. • j. Read on Envision 2104 for mP and plot the IC50s with mP values. • k. Data analysis: IC50s were determined based on a non-linear regression analysis of data collected.

[2] = target: T2, cIAP2-BIR3 (Homo sapiens, UniProt Q13489); assay: cIAP2-BIR3 fluorescence polarization binding assay; conditions: FP, probe AbuRPFK-5FAM (SM5F) 5 nM, cIAP2-BIR3 80 nM, 60 min at 25° C.
T2 construct: cIAP2-BIR3; purchased Reaction Biology APT-11-372
T2 sequence (Q13489 238-349 limits assumed): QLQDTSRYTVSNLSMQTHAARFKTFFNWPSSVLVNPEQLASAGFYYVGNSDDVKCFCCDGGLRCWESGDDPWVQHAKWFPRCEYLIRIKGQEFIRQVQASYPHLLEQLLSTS
Text: as §1, §2

[3] = target: T3, cIAP1-BIR3 (Homo sapiens, UniProt Q13490); assay: cIAP1-BIR3 fluorescence polarization binding assay; conditions: FP, probe AbuRPFK-5FAM (SM5F) 5 nM, cIAP1-BIR3 15 nM, 60 min at 25° C.
T3 construct: cIAP1-BIR3; purchased Reaction Biology APT-11-370
T3 sequence (Q13490 253-363 limits assumed): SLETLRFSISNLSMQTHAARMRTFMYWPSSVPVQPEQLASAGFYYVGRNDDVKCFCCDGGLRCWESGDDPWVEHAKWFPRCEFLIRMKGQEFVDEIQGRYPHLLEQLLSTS
Text: as §1, §2

T1 sequence (P98170 241-356 limits assumed): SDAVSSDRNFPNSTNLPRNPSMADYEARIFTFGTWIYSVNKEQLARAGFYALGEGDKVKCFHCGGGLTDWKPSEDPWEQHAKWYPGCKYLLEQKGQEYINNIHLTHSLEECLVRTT

| IC50 [1] [nM] | IC50 [2] [nM] | IC50 [3] [nM] | SMILES |
| --- | --- | --- | --- |
| 10 to 100 | 10 to 100 | 1 to 10 | CC[C@H](NC(=O)[C@H](C)NC)C(=O)N1CCC[C@H]1C(=O)N[C@@H]1CCCc2c(-c3ccc(-c4cccc5c4CCC[C@H]5NC(=O)[C@@H]4CCCN4C(=O)[C@H](CC)NC(=O)[C@H](C)NC)cc3)cccc21 [III-I, (2S)-1-[(2S)-2-[(2S)-2-(methylamino)propanamido]butanoy]l-N-[(1R)-5-[4-[(5R)-5-[(2S)-1-[(2S)-2-[(2S)-2-(methylamino)propanamido]butanoyl]pyrrolidine-2-amido]-5,6,7,8-tetrahydronaphthalen-1-yl]phenyl]-1,2,3,4-tetrahydronaphthalen-1-yl]pyrrolidine-2-carboxamide] |
| 10 to 100 | 10 to 100 | 1 to 10 | CN[C@@H](C)C(=O)N[C@H](C(=O)N1CCC[C@H]1C(=O)N[C@@H]1CCCc2c(-c3cccc4c3CCC[C@H]4NC(=O)[C@@H]3CCCN3C(=O)[C@@H](NC(=O)[C@H](C)NC)C(C)(C)C)cccc21)C(C)(C)C [Compound V-J, (2S)-1-[(2S)-3,3-dimethyl-2-[(2S)-2-(methylamino)propanamido]butanoyl]-N-[(5R,5′R)-5′-[(2S)-[(2S)-3,3-dimethyl-2-[(2S)-2-(methylamino)propanamido]butanoyl]pyrolidine-2-amido]-5H,5′ H,6H,6′H,7H,7′H,8H,8′ H-[1,1′-binaphthalen]-5-yl]pyrrolidine-2-carboxamide] |
| 10 to 100 | 10 to 100 | 1 to 10 | CC[C@H](NC(=O)[C@H](C)NC)C(=O)N1CCC[C@H]1C(=O)N[C@@H]1CCCc2c(Nc3cccc4c3CCC[C@H]4NC(=O)[C@@H]3CCCN3C(=O)[C@H](CC)NC(=O)[C@H](C)NC)cccc21 [Compound VI-C, (2S,2'S)—N,N′-((1R,1′R)-azanediylbis(1,2,3,4-tetrahydronaphthalene-5,1-diyl))bis(1-((S)-2-((S)-2-(methylamino)propanamido)butanoyl)pyrrolidine-2-carboxamide)] |
| 10 to 100 | 10 to 100 | 1 to 10 | CN[C@@H](C)C(=O)N[C@H](C(=O)N1C[C@@H](O)C[C@H]1C(=O)N[C@@H]1CCCc2c(OC/C=C/COc3cccc4c3CCC[C@H]4NC(=O)[C@@H]3C[C@H](O)CN3C(=O)[C@@H](NC(=O)[C@H](C)NC)C3CCCCC3)cccc21)C1CCCCC1 [Compound I-E, (2S,4S)-1-[(2S)-2-cyclohexyl-2-[(2S)-2-(methylamino)propanamido]acetyl]-N-[(1R)-5-[[(2E)-4-[[(5R)-5-[(2S,4S)-1-[(2S)-2-cyclohexyl-2-[(2S)-2-(methylamino)propanamido]acetyl]-4-hydroxypyrrolidine-2-amido]-5,6,7,8-tetrahydronaphthalen-1-yl]oxy]but-2-en-1-yl]oxy]-1,2,3,4-tetrahydronaphthalen-1-yl]-4-hydroxypyrrolidine-2-carboxamide] |
| 100 to 1000 | 10 to 100 | 1 to 10 | CN[C@@H](C)C(=O)N[C@@H](C)C(=O)N1CCC[C@H]1C(=O)N[C@@H]1CCCc2c(-c3ccc(-c4cccc5c4CCC[C@H]5NC(=O)[C@@H]4CCCN4C(=O)[C@H](C)NC(=O)[C@H](C)NC)cc3)cccc21 [Compound III-H, (2S)-1-[(2S)-2-[(2S)-2-(methylamino)propanamido]propanoyl]-N-[(1R)-5-[4-[(5R)-5-[(2S)-1-[(2S)-2-[(2S)-2-(methylamino)propanamido]propanoyl]pyrrolidine-2-amido]-5,6,7,8-tetrahydronaphthalen-1-yl]phenyl]-1,2,3,4-tetrahydronaphthalen-1-yl]pyrrolidine-2-carboxamide] |
| 100 to 1000 | 10 to 100 | 1 to 10 | CN[C@@H](C)C(=O)N[C@@H](C)C(=O)N1CCC[C@H]1C(=O)N[C@@H]1CCOc2c(-c3cccc4c3OCC[C@H]4NC(=O)[C@@H]3CCCN3C(=O)[C@H](C)NC(=O)[C@H](C)NC)cccc21 [Compound V-A, (2S)-1-[(2S)-2-[(2S)-2-(methylamino)propanamido]propanoyl]-N-[(4R)-8-[(4R)-4-[(2S)-1-[(2S)-2-[(2S)-2-(methylamino)propanamido]propanoyl]pyrrolidine-2-amido]-3,4-dihydro-2H-1-benzopyran-8-yl]-3,4-dihydro-2H-1-benzopyran-4-yl]pyrrolidine-2-carboxamide] |
| 10 to 100 | 10 to 100 | 1 to 10 | CN[C@@H](C)C(=O)N[C@H](C(=O)N1CCC[C@H]1C(=O)N[C@@H]1CCOc2c(-c3cccc4c3OCC[C@H]4NC(=O)[C@@H]3CCCN3C(=O)[C@@H](NC(=O)[C@H](C)NC)C3CCCCC3)cccc21)C1CCCCC1 [Compound V-P, (S)-1-((S)-2-cyclohexyl-2-((S)-2-(methylamino)propanamido)acetyl)-N-((4R,4′R)-4′-((S)-1-((S)-2-cyclohexyl-2-((S)-2-(methylamino)propanamido)acetyl)pyrrolidine-2-carboxamido)-[8,8′-bichroman]-4-yl)pyrrolidine-2-carboxamide] |
| 10 to 100 | 10 to 100 | 1 to 10 | CN[C@@H](C)C(=O)N[C@H](C(=O)N1CCC[C@H]1C(=O)N[C@@H]1CCCc2c(-c3ccc(-c4cccc5c4CCC[C@H]5NC(=O)[C@@H]4CCCN4C(=O)[C@@H](NC(=O)[C@H](C)NC)C(C)C)cc3)cccc21)C(C)C [III-N, (2S)-1-[(2S)-3-methyl-2-[(2S)-2-(methylamino)propanamido]butanoyl]-N-[(1R)-5-[4-[(5R)-5-[(2S)-1-[(2S)-3-methyl-2-[(2S)-2-(methylamino)propanamido]butanoyl]pyrolidine-2-amido]-5,6,7,8-tetrahydronaphthalen-1-yl]phenyl]-1,2,3,4-tetrahydronaphthalen-1-yl]pyrrolidine-2-carboxamide] |
|  |  | 1 to 10 | CN[C@@H](C)C(=O)N[C@H](C(=O)N1CCC[C@H]1C(=O)N[C@@H]1CCCc2c1cccc2N1CCN(c2cccc3c2CCC[C@H]3NC(=O)[C@@H]2CCCN2C(=O)[C@@H](NC(=O)[C@H](C)NC)C(C)C)CC1)C(C)C [VIII-F, (2S,2'S)—N,N′-((1R,1′R)-piperazine-1,4-diylbis(1,2,3,4-tetrahydonaphthalene-5,1-diyl))bis(1-(methyl-L-alanyl-L-valyl)pyrrolidine-2-carboxamide)] |
|  |  | 1 to 10 | CN[C@@H](C)C(=O)N[C@H](C(=O)N1CCC[C@H]1C(=O)N[C@@H]1CCCc2c1cccc2N1CCN(c2cccc3c2CCC[C@H]3NC(=O)[C@@H]2CCCN2C(=O)[C@@H](NC(=O)[C@H](C)NC)C(C)(C)C)CC1)C(C)(C)C [Compound VIII-D, (2S,2′S)—N,N′-((1R,1′R)-piperazine-1,4-diylbis(1,2,3,4-tetrahydronaphthalene-5,1-diyl))bis(1-((S)-3,3-dimethyl-2-((S)-2-(methylamino)propanamido)butanoyl)pyrolidine-2-carboxamide)] |
|  |  | 1 to 10 | CN[C@@H](C)C(=O)N[C@H](C(=O)N1CCC[C@H]1C(=O)N[C@@H]1CCCc2c1cccc2N1CCN(c2cccc3c2CCC[C@H]3NC(=O)[C@@H]2CCCN2C(=O)[C@@H](NC(=O)[C@H](C)NC)C2CCCCC2)CC1)C1CCCCC1 [Compound VIII-C, (2S,2'S)—N,N′-((1R,1′R)-piperazine-1,4-diylbis(1,2,3,4-tetrahydronaphthalene-5,1-diyl))bis(1-((S)-2-cyclohexyl-2-((S)-2-(methylamino)propanamido)acetyl)pyrrolidine-2-carboxamide)] |
|  |  | 1 to 10 | CC[C@H](NC(=O)[C@H](C)NC)C(=O)N1CCC[C@H]1C(=O)N[C@@H]1CCCc2c1cccc2N1CCN(c2cccc3c2CCC[C@H]3NC(=O)[C@@H]2CCCN2C(=O)[C@H](CC)NC(=O)[C@H](C)NC)CC1 [VIII-E, (2S,2'S)—N,N′-((1R,1′R)-piperazine-1,4-diylbis(1,2,3,4-tetrahydonaphthalene-5,1-diyl))bis(1-((S)-2-((S)-2-(methylamino)propanamido)butanoyl)pyrrolidine-2-carboxamide)] |
